The text below walks through data of patent publication US9783536B2, “Nitrogen-containing heterocyclic compound or salt thereof” (FUJIFILM Corporation, priority 2013, dated 2017).

One test concerns the target T1, human PI3Kα protein (Homo sapiens, UniProt P42336).
T1 construct: purchased Carna Biosciences, Inc; host or cells: baculovirus expression system
Nature of the test: PI3Kα enzyme assay (ADP-Glo). The following applies: read-out: PI3Kα enzyme inhibitory activity. It counts as biochemical. In outline:
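Biotinylated human PI3Kα (baculovirus-expressed, 4.5 nmol/L) pre-incubated 15 min with compound in Tris-HCl pH 7.5, MgCl2, BSA; reaction 60 min at 25° C with 50 μmol/L PIP2 and 100 μmol/L ATP final. ADP quantified by ADP-Glo luminescence; IC50 calculated.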
(In general: In ADP-Glo the light output rises with the ADP produced.)

The target of test [1] is T2, GST fusion human ERK2 protein (Homo sapiens, UniProt P28482).
T2 construct: purchased Carna Biosciences, Inc; host or cells: E. coli expression system
T2 sequence (P28482 whole entry, the tested form may be a part): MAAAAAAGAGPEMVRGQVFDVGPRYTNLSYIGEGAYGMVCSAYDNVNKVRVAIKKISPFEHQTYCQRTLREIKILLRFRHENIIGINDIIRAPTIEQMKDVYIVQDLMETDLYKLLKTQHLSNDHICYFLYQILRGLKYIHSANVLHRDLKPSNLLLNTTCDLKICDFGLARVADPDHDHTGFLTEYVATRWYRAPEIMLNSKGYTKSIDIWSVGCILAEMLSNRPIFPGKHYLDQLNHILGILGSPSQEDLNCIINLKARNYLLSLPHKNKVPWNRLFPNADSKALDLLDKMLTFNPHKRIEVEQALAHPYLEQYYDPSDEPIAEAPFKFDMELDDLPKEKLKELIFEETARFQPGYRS
Nature of the test: ERK2 enzyme assay (2). It counts as biochemical. The conditions noted are these: read-out: ERK2 enzyme inhibitory activity (2). In outline:
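GST-tagged human ERK2 expressed in E. coli (1.25 nmol/L) was preincubated with compound for 15 min at room temperature in pH 7.5 Hepes buffer with MgCl2, DTT and Brij35. Reaction with FL-Peptide 8 (final 4.25 μmol/L) and ATP (final 1 mmol/L) ran 120 min at 25 °C; EDTA stopped it, and phosphorylated peptide was quantified by mobility-shift separation to derive IC50.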

Structures are written as SMILES. Where two headings read alike, the source gives them in different places.

T1 sequence (P42336 whole entry): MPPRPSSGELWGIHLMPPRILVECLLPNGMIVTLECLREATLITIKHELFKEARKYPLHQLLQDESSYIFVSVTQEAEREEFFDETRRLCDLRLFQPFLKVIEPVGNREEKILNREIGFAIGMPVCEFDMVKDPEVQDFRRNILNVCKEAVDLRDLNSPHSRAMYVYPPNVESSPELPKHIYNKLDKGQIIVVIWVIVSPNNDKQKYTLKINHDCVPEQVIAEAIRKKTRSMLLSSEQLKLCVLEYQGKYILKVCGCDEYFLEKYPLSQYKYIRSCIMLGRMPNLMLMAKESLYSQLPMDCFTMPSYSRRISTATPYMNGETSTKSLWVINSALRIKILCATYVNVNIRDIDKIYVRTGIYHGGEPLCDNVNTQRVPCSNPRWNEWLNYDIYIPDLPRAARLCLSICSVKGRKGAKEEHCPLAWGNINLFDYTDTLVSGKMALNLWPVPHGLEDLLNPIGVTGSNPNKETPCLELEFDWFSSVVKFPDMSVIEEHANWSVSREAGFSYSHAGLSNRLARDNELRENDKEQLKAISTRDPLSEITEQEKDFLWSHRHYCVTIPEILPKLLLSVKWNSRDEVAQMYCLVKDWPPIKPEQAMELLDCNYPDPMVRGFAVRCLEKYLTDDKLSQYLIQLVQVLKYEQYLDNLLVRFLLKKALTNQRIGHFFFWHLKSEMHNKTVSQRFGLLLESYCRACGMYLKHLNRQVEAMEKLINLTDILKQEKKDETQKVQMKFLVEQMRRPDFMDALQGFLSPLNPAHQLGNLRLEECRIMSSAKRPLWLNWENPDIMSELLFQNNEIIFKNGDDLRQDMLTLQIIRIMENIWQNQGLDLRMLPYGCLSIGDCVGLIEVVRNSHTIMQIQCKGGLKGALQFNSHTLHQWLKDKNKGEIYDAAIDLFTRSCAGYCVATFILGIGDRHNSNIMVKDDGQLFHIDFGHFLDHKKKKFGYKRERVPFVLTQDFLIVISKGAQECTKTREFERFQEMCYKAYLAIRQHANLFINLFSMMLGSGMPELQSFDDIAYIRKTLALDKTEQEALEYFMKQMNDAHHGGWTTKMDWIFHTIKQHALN
T1 sequence (P27986 whole entry partner): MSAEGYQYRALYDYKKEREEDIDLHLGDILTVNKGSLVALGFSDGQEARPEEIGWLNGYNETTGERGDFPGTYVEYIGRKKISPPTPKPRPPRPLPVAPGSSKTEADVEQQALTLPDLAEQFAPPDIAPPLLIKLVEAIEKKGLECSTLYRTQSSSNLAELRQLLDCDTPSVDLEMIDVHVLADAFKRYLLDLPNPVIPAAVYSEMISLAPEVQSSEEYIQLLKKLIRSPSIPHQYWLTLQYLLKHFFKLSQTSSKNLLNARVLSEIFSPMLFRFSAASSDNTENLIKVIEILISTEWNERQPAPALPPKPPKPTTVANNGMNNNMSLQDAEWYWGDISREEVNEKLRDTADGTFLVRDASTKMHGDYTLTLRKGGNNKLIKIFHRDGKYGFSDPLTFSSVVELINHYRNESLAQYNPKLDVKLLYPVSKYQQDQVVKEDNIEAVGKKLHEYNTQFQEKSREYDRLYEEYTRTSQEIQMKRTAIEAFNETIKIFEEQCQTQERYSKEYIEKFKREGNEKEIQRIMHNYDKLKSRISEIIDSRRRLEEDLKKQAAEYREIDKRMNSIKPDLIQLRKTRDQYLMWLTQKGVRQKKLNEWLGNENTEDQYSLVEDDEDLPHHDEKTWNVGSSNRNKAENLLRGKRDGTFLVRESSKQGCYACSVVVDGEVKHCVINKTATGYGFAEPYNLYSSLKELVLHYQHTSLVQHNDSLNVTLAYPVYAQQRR

As to `CC(C)c1cnnc(Nc2ccc3ncc(C4=CCN(C(=O)OC(C)(C)C)C4)cc3n2)c1` [Example 0892, tert-butyl 3-(6-((5-isopropylpyridazin-3-yl)amino)-1,5-naphthyridin-3-yl)-2,5-dihydro-1H-pyrrole-1-carboxylate], the IC50 (at human PI3Kα protein; in test [1] (ERK2 enzyme assay (2))) was 1000 to 10000 nM throughout.
Turning to `CC(C)c1cnnc(Nc2ccc3ncc(N4CCC(F)(F)C4)cc3n2)c1` [Example 0893], the IC50 (at human PI3Kα protein; in test [1] (ERK2 enzyme assay (2))) was under 1000 nM in each case.
`CO[C@H]1CCC[C@@H]1Nc1cnc2ccc(Nc3cc(C(C)C)cnn3)nc2c1` [Example 0894]: the IC50 on human PI3Kα protein was under 1000 nM; in test [1] (ERK2 enzyme assay (2)), 1000 to 10000 nM.
Taken in the same sequence, the figures for `COC1CCN(c2cnc3ccc(Nc4cc(C(C)C)cnn4)nc3c2)C1` (stereo not drawn) [Example 0895] were 1000 to 10000 nM and under 1000 nM.
On to `CC(C)c1cnnc(Nc2ccc3ncc(N4CCC(C(F)(F)F)C4)cc3n2)c1` (stereo not drawn) [Example 0896], for which the IC50 (at human PI3Kα protein; in test [1] (ERK2 enzyme assay (2))) was 1000 to 10000 nM each time.
As for `CC(C)c1cnnc(Nc2ccc3ncc(N4CCC(C#N)C4)cc3n2)c1` (stereo not drawn) [Example 0897], the IC50 (at human PI3Kα protein; in test [1] (ERK2 enzyme assay (2))) was under 1000 nM in each case.
Turning to `CC(C)c1cnnc(Nc2ccc3ncc(N4CCC(C(N)=O)C4)cc3n2)c1` (stereo not drawn) [Example 0898], the IC50 at human PI3Kα protein is under 1000 nM; in test [1] (ERK2 enzyme assay (2)), 1000 to 10000 nM.
Consider `CC(C)c1cnnc(Nc2ccc3ncc(N4CCC(N5CCCC5)C4)cc3n2)c1` (stereo not drawn) [Example 0899], for which the IC50 (at human PI3Kα protein; in test [1] (ERK2 enzyme assay (2))) was 1000 to 10000 nM each time.
`CC(C)c1cnnc(Nc2ccc3ncc(N4CCC(S(N)(=O)=O)C4)cc3n2)c1` (stereo not drawn) [Example 0900]: the figures for the IC50 (at human PI3Kα protein; in test [1] (ERK2 enzyme assay (2))) were under 1000 nM and 1000 to 10000 nM, respectively.
Turning to `CC(C)c1cnnc(Nc2ccc3ncc(N4C5CCC4COC5)cc3n2)c1` [Example 0901], the IC50 on human PI3Kα protein was 1000 to 10000 nM; in test [1], under 1000 nM.
Consider `CC(C)c1cnnc(Nc2ccc3ncc(N4CC5CC(C4)O5)cc3n2)c1` [Example 0902], for which the IC50 (on human PI3Kα protein; in test [1]) was under 1000 nM in each case.
For the compound `CC(C)c1cnnc(Nc2ccc3ncc(N4CC5CCC(C4)O5)cc3n2)c1` [Example 0903], the IC50 (on human PI3Kα protein; in test [1]) was under 1000 nM throughout.
As for `CC(C)c1cnnc(Nc2ccc3ncc(NC4COC4)cc3n2)c1` [Example 0904], the IC50 at human PI3Kα protein is under 1000 nM; in test [1], 1000 to 10000 nM.
Taken in the same sequence, the figures for `CC(C)c1cnnc(Nc2ccc3ncc(NC4CNC4)cc3n2)c1` [Example 0905, N^7-(azetidin-3-yl)-N^2-(5-isopropylpyridazin-3-yl)-1,5-naphthyridine-2,7-diamine] were 1000 to 10000 nM and 1000 to 10000 nM.
For `CC(C)c1cnnc(Nc2ccc3ncc(C4=CCNC4)cc3n2)c1` [Example 0906, 7-(2,5-Dihydro-1H-pyrrol-3-yl)-N-(5-isopropylpyridazin-3-yl)-1,5-naphthyridine-2-amine], the IC50 is 1000 to 10000 nM at human PI3Kα protein and under 1000 nM in test [1].
Taken in the same sequence, the figures for `CC(C)c1cnnc(Nc2ccc3ncc(C4=CCN(C(=O)N(C)C)C4)cc3n2)c1` [Example 0907, 3-(6-((5-Isopropylpyridazin-3-yl)amino)-1,5-naphthyridin-3-yl)-N,N-dimethyl-2,5-dihydro-1H-pyrrole-1-carboxamide] were under 1000 nM and under 1000 nM.
In the same order, the values of `CC(C)c1cnnc(Nc2ccc3ncc(C4=CCN(S(C)(=O)=O)C4)cc3n2)c1` [Example 0908, N-(5-Isopropylpyridazin-3-yl)-7-(1-(methylsulfonyl)-2,5-dihydro-1H-pyrrol-3-yl)-1,5-naphthyridine-2-amine] are under 1000 nM and under 1000 nM.
Taken in the same sequence, the figures for `CC(C)c1cnnc(Nc2ccc3ncc(-c4cn(C)nc4CN4CCN(c5ccncc5)CC4)cc3n2)c1` [Example 0909] were under 1000 nM and under 1000 nM.
For the compound `CC(C)c1cnnc(Nc2ccc3ncc(-c4cn(C)nc4CN4CCN(c5cccnc5)CC4)cc3n2)c1` [Example 0910], the IC50 (at human PI3Kα protein; in test [1]) was under 1000 nM throughout.
In the case of `CC(C)c1cnnc(Nc2ccc3ncc(-c4cn(C)nc4COC4COC4)cc3n2)c1` [Example 0911, N-(5-isopropylpyridazin-3-yl)-7-(1-methyl-3-((oxetan-3-yloxy)methyl)-1H-pyrazol-4-yl)-1,5-naphthyridine-2-amine], the IC50 (at human PI3Kα protein; in test [1]) was under 1000 nM throughout.
As for `CC(C)c1cnnc(Nc2ccc3ncc(-c4cn(C)nc4CN4CCN(C)CC4)cc3n2)c1` [Example 0912, N-(5-isopropylpyridazin-3-yl)-7-(1-methyl-3-((4-methylpiperazin-1-yl)methyl)-1H-pyrazol-4-yl)-1,5-naphthyridine-2-amine], the IC50 (at human PI3Kα protein; in test [1]) was under 1000 nM each time.
In the case of `CC(C)c1cnnc(Nc2ccc3ncc(-c4cn(C)nc4COc4cccnn4)cc3n2)c1` [Example 0913, N-(5-isopropylpyridazin-3-yl)-7-(1-methyl-3-((pyridazin-3-yloxy)methyl)-1H-pyrazol-4-yl)-1,5-naphthyridine-2-amine], the IC50 (at human PI3Kα protein; in test [1]) was under 1000 nM throughout.
In the case of `COc1c(-c2cnn(C)c2)cnc2ccc(Nc3cc(C(C)C)cnn3)nc12` [Example 0914, N-(5-isopropylpyridazin-3-yl)-8-methoxy-7-(1-methyl-1H-pyrazol-4-yl)-1,5-naphthyridine-2-amine], the IC50 (at human PI3Kα protein; in test [1]) was under 1000 nM each time.
For `CCC(C)c1cnnc(Nc2ccc3ncc(-c4cn(C)nc4C)cc3n2)c1` (stereo not drawn) [Example 0916], the IC50 (on human PI3Kα protein; in test [1]) was under 1000 nM each time.
For the compound `Cc1nn(C)cc1-c1cnc2ccc(Nc3cc(C(C)(C)C)cnn3)nc2c1` [Example 0917], the IC50 (on human PI3Kα protein; in test [1]) was under 1000 nM each time.
With `CCCc1cnnc(Nc2ccc3ncc(-c4cnn(C)c4)cc3n2)c1` [Example 0918], the IC50 (on human PI3Kα protein; in test [1]) was under 1000 nM each time.
In the case of `CCOC(C)c1cnnc(Nc2ccc3ncc(-c4cnn(C)c4)cc3n2)c1` (stereo not drawn) [Example 0920], the IC50 (on human PI3Kα protein; in test [1]) was under 1000 nM throughout.
Regarding `CCOC(C)c1cnnc(Nc2ccc3ncc(-c4cn(C)nc4C)cc3n2)c1` (stereo not drawn) [Example 0921], the IC50 (on human PI3Kα protein; in test [1]) was under 1000 nM in each case.
As for `COCc1cnnc(Nc2ccc3ncc(-c4cnn(C)c4)cc3n2)c1` [Example 0922], the IC50 at human PI3Kα protein was 1000 to 10000 nM; in test [1], under 1000 nM.
Taken in the same sequence, the figures for `COCc1cnnc(Nc2ccc3ncc(-c4cn(C)nc4C)cc3n2)c1` [Example 0923] were under 1000 nM and under 1000 nM.
On to `CN(C)S(=O)(=O)Cc1cnnc(Nc2ccc3ncc(-c4cnn(C)c4)cc3n2)c1` [Example 0924], for which the IC50 (at human PI3Kα protein; in test [1]) was under 1000 nM in each case.
Turning to `Cc1nn(C)cc1-c1cnc2ccc(Nc3cc(CS(=O)(=O)N(C)C)cnn3)nc2c1` [Example 0925, 1-(6-((7-(1,3-Dimethyl-1H-pyrazol-4-yl)-1,5-naphthyridin-2-yl)amino)pyridazin-4-yl)-N,N-dimethylmethane sulfonamide], the IC50 (on human PI3Kα protein; in test [1]) was under 1000 nM each time.
In the case of `Cc1nn(C)cc1-c1cnc2ccc(Nc3cc(C4CCCCC4)cnn3)nc2c1` [Example 0926, N-(5-cyclohexylpyridazin-3-yl)-7-(1,3-dimethyl-1H-pyrazol-4-yl)-1,5-naphthyridine-2-amine], the IC50 (on human PI3Kα protein; in test [1]) was under 1000 nM throughout.
For the compound `Cn1cc(-c2cnc3ccc(Nc4cc(C5CCCCC5)cnn4)nc3c2)cn1` [Example 0927, N-(5-cyclohexylpyridazin-3-yl)-7-(1-methyl-1H-pyrazol-4-yl)-1,5-naphthyridine-2-amine], the IC50 (on human PI3Kα protein; in test [1]) was under 1000 nM in each case.
Take `CC(C)c1cnnc(Nc2ccc3ncc(-c4cnn(CC#N)c4)cc3n2)c1` [Example 0928, 2-(4-(6-((5-isopropylpyridazin-3-yl)amino)-1,5-naphthyridin-3-yl)-1H-pyrazol-1-yl)acetonitrile]: the IC50 (on human PI3Kα protein; in test [1]) was under 1000 nM throughout.
For the compound `CC(C)c1cnnc(Nc2ccc3ncc(Br)cc3n2)c1` [Example 0929, 7-bromo-N-(5-isopropylpyridazin-3-yl)-1,5-naphthyridine-2-amine], the IC50 was 1000 to 10000 nM on human PI3Kα protein and under 1000 nM in test [1].
In the same order, the values of `COC1CN(c2nn(C)cc2-c2cnc3ccc(Nc4cc(C(C)C)cnn4)nc3c2)C1` [Example 0930] are under 1000 nM and under 1000 nM.
Taken in the same sequence, the figures for `CC(C)c1cnnc(Nc2ccc3ncc(-c4cn(C)nc4Br)cc3n2)c1` [Example 0931] were under 1000 nM and under 1000 nM.
In the same order, the values of `CC(C)c1cnnc(Nc2ccc3ncc(-c4cn(C)nc4N4CCC4)cc3n2)c1` [Example 0932] are under 1000 nM and under 1000 nM.
For the compound `COCCOC1CN(c2nn(C)cc2-c2cnc3ccc(Nc4cc(C(C)C)cnn4)nc3c2)C1` [Example 0933], the IC50 (on human PI3Kα protein; in test [1]) was under 1000 nM throughout.
For the compound `CC(C)c1cnnc(Nc2ccc3ncc(-c4cn(C)nc4N4CC5(COC5)C4)cc3n2)c1` [Example 0934], the IC50 (on human PI3Kα protein; in test [1]) was under 1000 nM in each case.
Take `CC(C)c1cnnc(Nc2ccc3ncc(-c4cn(C)nc4N4CCC(=O)N(C)CC4)cc3n2)c1` [Example 0935, 1-(4-(6-((5-isopropylpyridazin-3-yl)amino)-1,5-naphthyridin-3-yl)-1-methyl-1H-pyrazol-3-yl)-4-methyl-1,4-diazepan-5-one]: the IC50 at human PI3Kα protein is under 1000 nM; in test [1], 1000 to 10000 nM.
